Here are results for 1 molecule from US6706721B1, “N-(3-ethynylphenylamino)-6,7-bis(2-methoxyethoxy)-4-quinazolinamine mesylate anhydrate and monohydrate” (OSI Pharmaceuticals, Inc., priority 1998, dated 2004).

Data set [1] can be described thus: hygroscopicity. The data set is classed as physicochemical.
Data set [2] is described as follows: resistance to thermal degradation. The data set is classed as physicochemical.

Structures are written as SMILES.

As to `C#Cc1cccc(Nc2ncnc3cc(OCCOC)c(OCCOC)cc23)c1.CS(=O)(=O)O` [Polymorph C, N-(3-ethynylphenyl)-6,7-bis(2-methoxyethoxy)-4-quinazolinamine Mesylate Salt], the hygroscopicity entry in data set [1] is on record as “essentially non-hygroscopic”. Besides, the thermal degradation entry in data set [2] was “resistance to thermal degradation”.
